# From patent US11690911B2, “Combination of ATR kinase inhibitors and PD-1/PD-L1 inhibitors” (Bayer Pharma Aktiengesellschaft, priority 2017, dated 2023)
# Legend:
# [1] = test system: murine syngeneic colon carcinoma model CT26; conditions: mouse, in vivo, po, 50 mg/kg
# Experimental: (§1) KLN205) or three (CT26 and MC38 study 1) or only one (MC38 study 2) different combination schedules were tested:
# (§2) The oral application volume was 10 ml/kg and the intravenous application volume 5 ml/kg. The time interval between two applications per day was 6-7 h. The tumor size and the body weight were determined three times weekly. Changes in the body weight were a measure of treatment-related toxicity (>10%=critical, stop of treatment until recovery, >20%=toxic, termination). The tumor volume was detected by means of an electronic caliper gauge [0.5×length in mm×(width in mm)^2]. Animals for which the tumor volume exceeded 2000 mm^3 (or for which the mean tumor volume of the group exceeds 2000 mm^3) were euthanized. In vivo anti-tumor efficacy is presented as T/C ratio (Treatment/Control) calculated with tumor volumes at day of control group termination by the formula [(tumor volume of treatment group at day x)−(tumor volume of treatment group at day before first treatment)]/[(tumor volume control group at day x)−(tumor volume of control group at day before first treatment)]. […] Statistical analysis was assessed using SigmaStat software. A one-way analysis of variance was performed and differences to the control were compared by a pair-wise comparison procedure (Dunn's method).
# [2] = test system: murine syngeneic lymphoma model A20; conditions: mouse, in vivo, po, 50 mg/kg
# Experimental: as §1, §2
# [3] = test system: murine syngeneic lung carcinoma model KLN205; conditions: mouse, in vivo
# Experimental: as §1, §2
smiles,measurement,setting,value
"C[C@@H]1COCCN1c1cc(-c2ccnn2C)c2ccnc(-c3ccn[nH]3)c2n1 [Compound A, 2-[(3R)-3-methylmorpholin-4-yl]-4-(1-methyl-1H-pyrazol-5-yl)-8-(1H-pyrazol-5-yl)-1,7-naphthyridine]",Max. weight loss (%),[1],−1%
same,Max. weight loss (%),[2],−2%
same,Max. weight loss (%),[3],−19 (d9) %
same,body weight loss (in words),[3],critical body weight loss
